Reference: patent US20130053310A1 (NOVO NORDISK A/S, priority 2010, published 2013)
pEC50: −log10 of the molar value.

Legend:
[1] = biological target: T1, glucagon receptor (Homo sapiens, UniProt P47871); assay: Assay (I) Glucagon activity: cAMP biosensor (ACTOne) FLIPR assay in HEK-293 cells with cloned glucagon receptor; assay type: cell-based
T1 construct: expressed in transfected cells
Procedure: The cells (14000 per well) were incubated (37° C., 5% CO2) overnight in 384-well plates. Next day the cells were loaded with a calcium responsive dye that only distributed into the cytoplasm. Probenecid, an inhibitor of the organic anion transporter, was added to prevent the dye from leaving the cell. A PDE inhibitor was added to prevent formatted cAMP from being degraded. […] End point data were collected after 6 minutes. An increase in intracellular cAMP was proportional to an increased in calcium concentrations in the cytoplasm. When calcium was bound the dry a fluorescence signal was generated. EC50-values were calculated in Prism5.

[2] = Assay (II) ThT fibrillation assay for physical stability; assay type: physicochemical; details: ThT fibrillation assay, pH 4.0, 250 μM, 10 mM glycylglycine, 45 hours at 37° C., shaking 960 rpm
Text: This has traditionally been measured by visual inspection of the sample. However, that kind of measurement is very subjective and depending on the observer. Therefore, the application of a small molecule indicator probe is much more advantageous.
Here, F is the ThT fluorescence at the time t. The constant t0 is the time needed to reach 50% of maximum fluorescence.
Few of those intermediates nucleate to form a template onto which further intermediates may assembly and the fibrillation proceeds. The lag-time corresponds to the interval in which the critical mass of nucleus is built up and the apparent rate constant is the rate with which the fibril itself is formed.
Samples were prepared freshly before each assay. […] The pH of the sample was adjusted to the desired value using appropriate amounts of concentrated NaOH and HCl. Thioflavin T was added to the samples from a stock solution in H2O to a final concentration of 1 μM.
The plate was sealed with Scotch Pad (Qiagen).
Each run was initiated by incubating the plate at the assay temperature for 10 min. The plate was measured every 20 minutes for a desired period of time. Between each measurement, the plate was shaken and heated as described.
The supernatant was filtered through a 0.22 μm filter and an aliquot was transferred to a HPLC vial.
The measurement points were saved in Microsoft Excel format for further processing and curve drawing and fitting was performed using GraphPad Prism.
The data set may be fitted to Eq. (1).

T1 sequence (P47871 26-477): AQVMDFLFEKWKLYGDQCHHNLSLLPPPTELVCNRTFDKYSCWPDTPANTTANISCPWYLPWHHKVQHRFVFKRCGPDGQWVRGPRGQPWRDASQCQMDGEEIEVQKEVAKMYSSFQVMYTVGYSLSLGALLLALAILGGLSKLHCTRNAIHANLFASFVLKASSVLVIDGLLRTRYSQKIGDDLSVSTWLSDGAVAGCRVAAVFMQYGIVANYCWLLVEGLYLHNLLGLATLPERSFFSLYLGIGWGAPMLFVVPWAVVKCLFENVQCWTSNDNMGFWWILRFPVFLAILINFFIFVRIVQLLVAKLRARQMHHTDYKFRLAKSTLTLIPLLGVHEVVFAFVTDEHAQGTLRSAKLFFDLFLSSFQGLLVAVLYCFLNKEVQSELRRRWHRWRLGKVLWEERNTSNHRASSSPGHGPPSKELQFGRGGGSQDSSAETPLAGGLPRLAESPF

CC(C)C[C@H](NC(=O)[C@H](Cc1ccc(O)cc1)NC(=O)[C@H](CCCCN)NC(=O)[C@H](CO)NC(=O)[C@H](Cc1ccc(O)cc1)NC(=O)[C@H](CC(=O)O)NC(=O)[C@H](CO)NC(=O)[C@@H](NC(=O)[C@H](Cc1ccccc1)NC(=O)[C@@H](NC(=O)CNC(=O)[C@H](CCC(N)=O)NC(=O)[C@H](CO)NC(=O)[C@@H](N)Cc1c[nH]cn1)[C@@H](C)O)[C@@H](C)O)C(=O)N[C@@H](CC(=O)O)C(=O)N[C@@H](CO)C(=O)N[C@@H](CCCNC(=N)N)C(=O)N[C@@H](CCCNC(=N)N)C(=O)N[C@@H](C)C(=O)N[C@@H](CCC(N)=O)C(=O)N[C@@H](CC(=O)O)C(=O)N[C@@H](Cc1ccccc1)C(=O)N[C@H](C(=O)N[C@@H](CCC(N)=O)C(=O)N[C@@H](CCCNC(=N)N)C(=O)N[C@@H](CC(C)C)C(=O)N[C@@H](CC(C)C)C(=O)N[C@@H](CCC(=O)O)C(=O)N[C@H](C(=O)O)[C@@H](C)O)C(C)C [Example 11, [Arg^25, Leu^27, Glu^28]-Glucagon]
pEC50 [1]: 10.43 | Assay (II) (pH 4.0) Lag time (hours) [2]: > 45 hours
